These results are taken from article PMC8774223, “Comparison of Antiplatelet Effects of Phenol Derivatives in Humans” (Biomolecules, 2022).

Where “and” joins values, the source holds several entries; their conditions need not be identical. Identical values can stand only once. Entries after “also recorded” stand apart in the source; their conditions may differ. Like-named read-outs stand apart in the source and are kept apart here.

One data set has as its system Nrf2. To be noted: cited from earlier work.
A further data set has as its system hepatic HepG2. Further details: method as in PMID 35547925, PMID 30614688, doi:10.1016/j.jff.2019.01.047. To be noted: cited from earlier work.
The test system of data set [1] is platelet aggregation induced by collagen. Description: Collagen-induced platelet aggregation, whole blood aggregometry. The class given is cell-based, human. The settings on record: Platelet; human whole blood; read-out: IC25 (Mean ± SD, μM) on Collagen-Induced Platelet Aggregation. Here is the method:
Blood from 20 non-smoking, young (aged from 22 to 45 years, median 27), healthy volunteers was collected by venipuncture into plastic tubes containing heparin sodium (170 IU/10 mL; Zentiva, Prague, Czech Republic). No medication had been taken by volunteers 14 days prior blood collection and no alcohol had been consumed 12 h before the blood draw. The protocol was approved by the Ethics Committee of the Faculty of Pharmacy, Charles University on May 31, 2019.
(§1) A total of 300 µL of whole blood was diluted with the same volume of 0.9 % sodium chloride (B.Braun, Melsungen, Germany) preheated to 37 °C and incubated with 5 µL of a tested compound dissolved in DMSO (Penta, Prague, Czech Republic) at a final concentration of 0.8% for 3 min at 37 °C. Platelet aggregation was then induced by addition of collagen (Diagnostica a.s., Czech Republic), arachidonic acid (AA) or Thrombin Receptor Activating Peptide (TRAP) (Roche Holding AG, Basel, Switzerland) and monitored for 6 min. The dose of inducer was initially set to the minimal concentration which caused maximal aggregation. The second calibration was carried out by use of standards, 4-methylcatechol in the case of AA- and collagen-triggered aggregation (Sigma-Aldrich) or vorapaxar for thrombin aggregation (Selleck Chemicals GmbH, Munich, Germany). The final concentrations of inducers were in the range of 0.16–2.42 µg/mL for collagen, 25–196 µM for AA and 0.8–9.8 µM for TRAP. For comparison, also the clinically used standard ASA was employed.

Data set [2] has as its system platelet aggregation triggered by AA. Kind of data set: Arachidonic acid (AA)-induced platelet aggregation, whole blood aggregometry. In kind it is cell-based, human. To be noted: human whole blood; for IC50: Platelet. On the procedure:
Blood from 20 non-smoking, young (aged from 22 to 45 years, median 27), healthy volunteers was collected by venipuncture into plastic tubes containing heparin sodium (170 IU/10 mL; Zentiva, Prague, Czech Republic). No medication had been taken by volunteers 14 days prior blood collection and no alcohol had been consumed 12 h before the blood draw.
as §1, with “The final concentrations of inducers were in the range of 0.16–2.42 µg/mL for collagen, 25–196 µM for AA and 0.8–9.8 µM for TRAP.” left out

Data set [3] concerns human monocytic cell line THP-1. Further details: method as in PMID 35547925, PMID 30614688, doi:10.1016/j.jff.2019.01.047. To be noted: cited from earlier work.
For data set [4], the system named is anti-inflammatory activity. Further details: method as in PMID 30614688, doi:10.1016/j.jff.2019.01.047. To be noted: 10 μM; cited from earlier work.
Details of data set [5]: method as in PMID 10956160, PMID 12065208. The settings on record: chronic high dose studies; cited from earlier work.
Another data set relates to mice. Further details: method as in PMID 10956160, PMID 12065208. To be noted: cited from earlier work.
The next data set concerns rats. Further details: method as in PMID 10956160, PMID 12065208. The settings on record: cited from earlier work.
The mark [6] stands for this setting: class assigned by colour of the drawn structure, read-out: IC50 class, colour key of Figure 3.
Where [7] appears, read: read-out: IC50 (Mean ± SD, μM) on Arachidonic Acid-induced Platelet Aggregation.

By IC25 is commonly meant the concentration at which the effect reaches the 25% level. What is called IC50 is the midpoint of a concentration-inhibition curve. In the case of `CCc1ccc(O)c(OC)c1` [2-methoxy-4-ethylphenol], the “Activation of the Nrf2 pathway after its suppression by lipopolysaccharide” value in the data set on Nrf2 (10 μM) is given as “activated the Nrf2 pathway”. Also, the “Activation of the Nrf2 pathway” value in the data set on Nrf2 (only concentrations higher than 650 μM were tested) is reported as “activated the Nrf2 pathway”. Besides, the “Concentration from which mildly toxic” value in the data set on hepatic HepG2 was “about 660 μM and ~100 mg/L”. For the same compound, the 25% effect concentration (IC25) in [1] is 5.07 ± 4.05 µM. The IC50 was under 3 µM in [2] (setting [6]) and 1.37 ± 0.28 µM in data set [2] (setting [7]). Besides, the “Concentration below which toxicity was not observed” value in [3] was at least 5000 µM. The Anti-inflammatory activity result in data set [4] is recorded as “anti-inflammatory activity was observed”.

In the case of `C=CCc1ccc(OC)c(OC)c1` [4-allyl-1,2-dimethylcatechol, 4-allyl-1,2-dimethoxybenzene], the Rat plasma levels in data set [5] was 4–46 μM and 0.66–8.25 μg/mL. Also, the Tumors entry in the data set on mice and with rats was “elicited liver but also other tumors” throughout. The 50% inhibitory concentration (IC50) is over 100 µM in data set [2] (setting [6]) and about 61 µM in data set [2] (setting [7]). Further, in data set [2], the “Activity towards AA-induced aggregation (in words)” value is “inactive; also recorded: inactive or only weakly active”.
